Data published in patent US11059780B2, “Substituted pyrrolidine compound and use thereof” (Takeda Pharmaceutical Company Limited, priority 2017, dated 2021).

Target: T1, human orexin type 2 receptor (hOX2R) (Homo sapiens, UniProt O43614)
T1 construct: expressed in transfected cells
T1 sequence (O43614 1-444): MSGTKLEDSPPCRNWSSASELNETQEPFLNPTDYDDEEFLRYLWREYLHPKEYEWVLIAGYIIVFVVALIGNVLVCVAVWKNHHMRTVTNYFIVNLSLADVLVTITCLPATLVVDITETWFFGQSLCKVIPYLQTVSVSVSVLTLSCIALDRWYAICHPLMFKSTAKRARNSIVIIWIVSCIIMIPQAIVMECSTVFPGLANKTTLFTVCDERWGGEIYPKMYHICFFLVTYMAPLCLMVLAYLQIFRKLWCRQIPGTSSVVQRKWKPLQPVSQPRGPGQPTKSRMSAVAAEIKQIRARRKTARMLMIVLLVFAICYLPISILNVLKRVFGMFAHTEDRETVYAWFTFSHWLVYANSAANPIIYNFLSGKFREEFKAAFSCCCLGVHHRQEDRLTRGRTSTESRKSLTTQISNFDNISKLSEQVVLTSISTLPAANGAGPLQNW
Assay: Measurement of orexin type 2 receptor agonist activity (Fluo-4 calcium fluorescence, CHO cells forcibly expressing human OX2 receptor)
Type: cell-based
Details: test compound 3 μM, DMSO = 0%, orexin A (human) 10 nM = 100%
From the text: Experimental Example 1: Obtainment of Cell Stably Expressing Human Orexin Type 2 Receptor (hOX2R)
To obtain a cell clone stably expressing human orexin type 2 receptor, human orexin type 2 receptor cDNA was inserted into pcDNA3.1(+) plasmid vector (Invitrogen), and a plasmid DNA for expression of human orexin type 2 receptor (pcDNA3.1(+)/hOX2R) was cloned. The plasmid DNA was introduced into CHO-dhfr cell by an electroporation method, and human orexin type 2 receptor expressing clone cells were obtained by limiting dilution method by using G418 drug resistance as a selection marker.
Experimental Example 2: Measurement of Orexin Type 2 Receptor Agonist Activity
CHO cells forcibly expressing human OX2 receptor were seeded in each well of 384 well black transparent bottom plate (BD Falcon) at 7,500 cells/well, and cultured for one day in a 5% CO2 incubator at 37° C. After removal of the medium in the cell plate, assay buffer A containing a calcium indicator (HBSS (Life Technologies), 20 mM HEPES (Life Technologies), 0.1% BSA (Wako Pure Chemical Industries, Ltd.), 2.5 μg/mL Fluo-4 AM (DOJINDO Chemical), 0.08% Pluronic F127 (DOJINDO Chemical), 1.25 mM probenecid (DOJINDO Chemical)) was added at 30 μL/well. The plate was stood for 30 min in a 5% CO2 incubator at 37° C., and further stood at room temperature for 30 min. A test compound prepared by diluting with assay buffer B (HBSS, 20 mM HEPES, 0.1% BSA) was added at 10 μL/well, and the fluorescence value was measured by FDSSpCELL (Hamamatsu Photonics K.K.) every one sec for 1 min, and thereafter every two sec for 1 min 40 sec. The activity (%) of the test compound was calculated assuming that variation in the fluorescence value when DMSO was added instead of the test compound was 0% […], and variation in the fluorescence value when orexin A (human) (PEPTIDE INSTITUTE, INC.) was added at the final concentration of 10 nM was 100% […]. The activity of each compound at the concentration of 3 μM was shown below.

First: CO[C@@H]1CN(C(=O)c2cc(C)ccc2C)C[C@H]1Oc1cccc(CS(=O)(=O)N2CCCC2c2ccccn2)c1 (relative stereo) [Example 15, trans-(2,5-dimethylphenyl)(3-methoxy-4-(3-(((2-(pyridin-2-yl)pyrrolidin-1-yl)sulfonyl)methyl)phenoxy)pyrrolidin-1-yl)methanone]
Second: CO[C@@H]1CN(C(=O)c2cc(C)ccc2C)C[C@H]1Oc1cccc(CS(=O)(=O)N2CCCC2c2ncccn2)c1 (relative stereo) [Example 38, trans-(2,5-dimethylphenyl)(3-methoxy-4-(3-(((2-(pyrimidin-2-yl)pyrrolidin-1-yl)sulfonyl)methyl)phenoxy)pyrrolidin-1-yl)methanone]
The “OX2R agonist activity (3 μM, %)” value of the first is lower: 80% for the first, 98% for the second.

Compared with `CO[C@@H]1CN(C(=O)c2c(C)cccc2C2CC2)C[C@H]1Oc1cccc(OS(=O)(=O)N(C)C2CCOCC2)c1` (relative stereo) [Example 163, trans-3-((1-(2-cyclopropyl-6-methylbenzoyl)-4-methoxypyrrolidin-3-yl)oxy)phenyl methyl(tetrahydro-2H-pyran-4-yl)sulfamate], `CO[C@@H]1CN(C(=O)c2c(C)cccc2C2CC2)C[C@H]1Oc1cccc(NS(=O)(=O)N(C)C2CCOCC2)c1` (relative stereo) [Example 165, trans-N′-(3-((1-(2-cyclopropyl-6-methylbenzoyl)-4-methoxypyrrolidin-3-yl)oxy)phenyl)-N-methyl-N-(tetrahydro-2H-pyran-4-yl)sulfuric diamide] is higher in “OX2R agonist activity (3 μM, %)” value: 97% for the first, 108% for the second.

Going from `CO[C@@H]1CN(C(=O)c2cc(C)ccc2C)C[C@H]1Oc1cccc(CS(=O)(=O)N2CCCC2c2ccncc2)c1` (relative stereo) [Example 18, trans-(2,5-dimethylphenyl)(3-methoxy-4-(3-(((2-(pyridin-4-yl)pyrrolidin-1-yl)sulfonyl)methyl)phenoxy)pyrrolidin-1-yl)methanone] to `CO[C@@H]1CN(C(=O)c2cc(C)ccc2C)C[C@H]1Oc1cccc(CS(=O)(=O)N2CCCC2c2cccnc2)c1` (relative stereo) [Example 16, trans-(2,5-dimethylphenyl)(3-methoxy-4-(3-(((2-(pyridin-3-yl)pyrrolidin-1-yl)sulfonyl)methyl)phenoxy)pyrrolidin-1-yl)methanone], the “OX2R agonist activity (3 μM, %)” value rises from 75% to 77%.

First: CCc1cccc(C)c1C(=O)N1CC[C@H](Oc2cccc(CS(=O)(=O)N(C)C3CCOCC3)c2)C1 [Example 159, 1-(3-(((3S)-1-(2-ethyl-6-methylbenzoyl)pyrrolidin-3-yl)oxy)phenyl)-N-methyl-N-(tetrahydro-2H-pyran-4-yl)methansulfo]
Second: CCc1ccc(C)c(C(=O)N2C[C@@H](OC)[C@H](Oc3cccc(CS(=O)(=O)N(C)C4CCOCC4)c3)C2)c1OC (relative stereo) [Example 164, trans-1-(3-((1-(3-ethyl-2-methoxy-6-methylbenzoyl)-4-methoxypyrrolidin-3-yl)oxy)phenyl)-N-methyl-N-(tetrahydro-2H-pyran-4-yl)methanesulfonamide]
The “OX2R agonist activity (3 μM, %)” value of the first is higher: 89% for the first, 86% for the second.

Going from `CO[C@@H]1CN(C(=O)c2cc(C)ccc2C)C[C@H]1Oc1cccc(CS(=O)(=O)N2CCCC2)c1` (relative stereo) [Example 5, trans-(2,5-dimethylphenyl)(3-methoxy-4-(3-((pyrrolidin-1-ylsulfonyl)methyl)phenoxy)pyrrolidin-1-yl)methanone] to `CO[C@@H]1CN(C(=O)c2cc(C)ccc2C)C[C@H]1Oc1cccc(CS(=O)(=O)N2CCOCC2CO)c1` (relative stereo) [Example 11, trans-(2,5-dimethylphenyl)(3-(3-(((3-(hydroxymethyl)morpholin-4-yl)sulfonyl)methyl)phenoxy)-4-methoxypyrrolidin-1-yl)methanone], the “OX2R agonist activity (3 μM, %)” value rises from 32% to 62%.

Compared with `CCc1cccc(C)c1C(=O)N1C[C@@H](OC)[C@H](Oc2cccc(NS(=O)(=O)N3CC4CC4C3)c2)C1` (stereo partly drawn) [Example 134, N-(3-(((3R,4R)-1-(2-ethyl-6-methylbenzoyl)-4-methoxypyrrolidin-3-yl)oxy)phenyl)-3-azabicyclo[3.1.0]hexane-3-sulfonamide], `CCc1ccccc1C(=O)N1C[C@@H](OC)[C@H](Oc2cccc(NS(=O)(=O)N3CC4CC4C3)c2)C1` (stereo partly drawn) [Example 129, N-(3-(((3R,4R)-1-(2-ethylbenzoyl)-4-methoxypyrrolidin-3-yl)oxy)phenyl)-3-azabicyclo[3.1.0]hexane-3-sulfonamide] is lower in “OX2R agonist activity (3 μM, %)” value: 108% for the first, 96% for the second.

Compared with `CO[C@@H]1CN(C(=O)c2ccccc2C2CC2)C[C@H]1Oc1cccc(CS(=O)(=O)N(C)C2CCOCC2)c1` (relative stereo) [Example 153, trans-1-(3-((1-(2-cyclopropylbenzoyl)-4-methoxypyrrolidin-3-yl)oxy)phenyl)-N-methyl-N-(tetrahydro-2H-pyran-4-yl)methanesulfonamide], `CO[C@@H]1CN(C(=O)c2c(C)cccc2C2CC2)C[C@H]1Oc1cccc(OS(=O)(=O)N2CCOCC2)c1` (relative stereo) [Example 166, trans-3-((1-(2-cyclopropyl-6-methylbenzoyl)-4-methoxypyrrolidin-3-yl)oxy)phenyl morpholine-4-sulfonate] is lower in “OX2R agonist activity (3 μM, %)” value: 105% for the first, 41% for the second.

Going from `CO[C@@H]1CN(C(=O)c2cc(C)ccc2C)C[C@H]1Oc1cccc(NS(=O)(=O)N2CCOCC2)c1` (relative stereo) [Example 4, trans-N-(3-((1-(2,5-dimethylbenzoyl)-4-methoxypyrrolidin-3-yl)oxy)phenyl)morpholine-4-sulfonamide] to `CO[C@@H]1CN(C(=O)c2cc(C)ccc2C)C[C@H]1Oc1cccc(NS(=O)(=O)N2CCC(C)C2)c1` (relative stereo) [Example 68, trans-N-(3-((1-(2,5-dimethylbenzoyl)-4-methoxypyrrolidin-3-yl)oxy)phenyl)-3-methylpyrrolidine-1-sulfonamide], the “OX2R agonist activity (3 μM, %)” value falls from 87% to 84%.

First: CO[C@@H]1CN(C(=O)c2cc(C)ccc2C)C[C@H]1Oc1cccc(NS(=O)(=O)N(C)CC2CCOC2)c1 (relative stereo) [Example 62, trans-N′-(3-((1-(2,5-dimethylbenzoyl)-4-methoxypyrrolidin-3-yl)oxy)phenyl)-N-methyl-N-(tetrahydrofuran-3-ylmethyl)sulfuric diamide]
Second: COC1CN(C(=O)c2cc(C)ccc2C)CC1Oc1cccc(NS(=O)(=O)N2C[C@H]3C[C@H]2C3)c1 (relative stereo) [Example 64, trans-N-(3-((1-(2,5-dimethylbenzoyl)-4-methoxypyrrolidin-3-yl)oxy)phenyl)-2-azabicyclo[2.1.1]hexane-2-sulfonamide]
The “OX2R agonist activity (3 μM, %)” value of the first is lower: 74% for the first, 75% for the second.

First: CCc1cccc(C)c1C(=O)N1C[C@@H](OC)[C@H](Oc2cccc(C(F)S(=O)(=O)N(C)C3CCOCC3)c2)C1 (relative stereo) [Example 154, trans-1-(3-((1-(2-ethyl-6-methylbenzoyl)-4-methoxypyrrolidin-3-yl)oxy)phenyl)-1-fluoro-N-methyl-N-(tetrahydro-2H-pyran-4-yl)methanesulfonamide]
Second: COc1cccc(C)c1C(=O)N1C[C@@H](OC)[C@H](Oc2cccc(CS(=O)(=O)N3CCCC3c3ccccn3)c2)C1 (relative stereo) [Example 119, trans-(2-methoxy-6-methylphenyl)(3-methoxy-4-(3-(((2-(pyridin-2-yl)pyrrolidin-1-yl)sulfonyl)methyl)phenoxy)pyrrolidin-1-yl)methanone]
The “OX2R agonist activity (3 μM, %)” value of the first is lower: 99% for the first, 100% for the second.

First: COC1CN(C(=O)c2cc(C)ccc2C)CC1Oc1cccc(CS(=O)(=O)N2CCCC2c2ccccc2C)c1 (stereo not drawn) [Example 41, trans-(2,5-dimethylphenyl)(3-methoxy-4-(3-(((2-(2-methylphneyl)pyrrolidin-1-yl)sulfonyl)methyl)phenoxy)pyrrolidin-1-yl)methanone]
Second: COc1ccccc1OC(=O)N1C[C@@H](OC)[C@H](Oc2cccc(NS(=O)(=O)N3CC4CC4C3)c2)C1 (stereo partly drawn) [Example 157, 2-methoxyphenyl(3R,4R)-3-(3-((3-azabicyclo[3.1.0]hex-3-ylsulfonyl)amino)phenoxy)-4-methoxypyrrolidine-1-carboxylate]
The “OX2R agonist activity (3 μM, %)” value of the first is lower: 75% for the first, 83% for the second.
